Molecular target: T1, HDM2 (Homo sapiens, UniProt Q00987)
T1 construct: Thioredoxin (N); made in house; host or cells: E. coli strain BL21(DE3)Rosetta
Experiment: FRET assay (HDM2 inhibition; method not described in this part)
Format: binding

T1 sequence (Q00987 17-125): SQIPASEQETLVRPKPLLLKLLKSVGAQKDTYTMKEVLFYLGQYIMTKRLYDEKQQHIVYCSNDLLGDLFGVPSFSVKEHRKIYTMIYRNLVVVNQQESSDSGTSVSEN

COc1ccc(Cn2c(-c3cccc(C)c3)nc3nc(C(=O)O)nc(N[C@H](C)C4CCC4)c32)cc1 [Example 5.19, 6-{[(1R)-1-cyclobutylethyl]amino}-7-(4-methoxybenzyl)-8-(3-methylphenyl)-7H-purine-2-carboxylic acid]
IC50 (Table 5): 582 nM

C[C@@H](Nc1nc(C(=O)O)nc2nc(-c3cccc(C(C)(C)C)c3)n(Cc3ccc(C(F)(F)F)cc3)c12)C1CCC1 [Example 2.25, 8-(3-tert-butylphenyl)-6-{[(1R)-1-cyclobutylethyl]amino}-7-[4-(trifluoromethyl)benzyl]-7H-purine-2-carboxylic acid]
IC50 (Table 2): 59.1 nM

COc1ccc2cc(-c3nc4nc(C(=O)O)nc(N[C@H](C)C5CCC5)c4n3Cc3ccc(C(F)(F)F)cc3)ccc2c1 [Example 1.133, 6-{[(1R)-1-cyclobutylethyl]amino}-8-(6-methoxynaphthalen-2-yl)-7-[4-(trifluoromethyl)benzyl]-7H-purine-2-carboxylic acid]
IC50 (Table 1): 73.3 nM

Cc1cccc(-c2nc3nc(C(=O)O)nc(N[C@H](C)C4CCC4)c3n2Cc2ccc(C(F)(F)F)cc2Cl)c1 [Example 5.12, 7-[2-chloro-4-(trifluoromethyl)benzyl]-6-{[(1R)-1-cyclobutylethyl]amino}-8-(3-methylphenyl)-7H-purine-2-carboxylic acid]
IC50 (Table 5): 94.6 nM

C[C@@H](Nc1nc(C(=O)O)nc2nc(-c3cc(N(C)C)ccc3O)n(Cc3ccc(C(F)(F)F)cc3)c12)C1CCC1 [Example 1.42, 6-{[(1R)-1-cyclobutylethyl]amino}-8-[5-(dimethylamino)-2-hydroxyphenyl]-7-[4-(trifluoromethyl)benzyl]-7H-purine-2-carboxylic acid]
IC50 (Table 1): 77 nM

C[C@@H](Nc1nc(C(=O)O)nc2nc(-c3cc(Cc4ccccc4)ccn3)n(Cc3ccc(C(F)(F)F)cc3)c12)C1CCC1 [Example 1.9, (R)-8-(4-benzylpyridin-2-yl)-6-((1-cyclobutylethyl)amino)-7-(4-(trifluoromethyl)benzyl)-7H-purine-2-carboxylic acid]
IC50 (Table 1): 37.4 nM

CCc1ccnc(-c2nc3nc(C(=O)O)nc(N[C@H](C)C4CCC4)c3n2Cc2ccc(C(F)(F)F)cc2)c1 [Example 1.69, 6-{[(1R)-1-cyclobutylethyl]amino}-8-(4-ethylpyridin-2-yl)-7-[4-(trifluoromethyl)benzyl]-7H-purine-2-carboxylic acid]
IC50 (Table 1): 42.7 nM

Cc1ccc(O)c(-c2nc3nc(C(=O)O)nc(N[C@H](C)C4CC4)c3n2Cc2ccc(Cl)cc2)c1 [Example 4.18, (R)-7-(4-chlorobenzyl)-6-((1-cyclopropylethyl)amino)-8-(2-hydroxy-5-methylphenyl)-7H-purine-2-carboxylic acid]
IC50 (Table 4): 347 nM

Cc1cc(OC(F)(F)F)ccc1-c1nc2nc(C(=O)O)nc(N[C@H](C)C3CCC3)c2n1Cc1ccc(C(F)(F)F)cc1 [Example 1.129, 6-{[(1R)-1-cyclobutylethyl]amino}-8-[2-methyl-4-(trifluoromethoxy)phenyl]-7-[4-(trifluoromethyl)benzyl]-7H-purine-2-carboxylic acid]
IC50 (Table 1): 46 nM

Cc1cccc(-c2nc3nc(C(=O)O)nc(N[C@H](C)C4CC4)c3n2Cc2ccc(OC(F)(F)F)cc2)c1 [Example 5.8, 6-{[(1R)-1-cyclopropylethyl]amino}-8-(3-methylphenyl)-7-[4-(trifluoromethoxy)benzyl]-7H-purine-2-carboxylic acid]
IC50 (Table 5): 149 nM

Cc1ccc(OCCC(=O)O)c(-c2nc3nc(C(=O)O)nc(N[C@H](C)C4CC4)c3n2Cc2ccc(Cl)cc2)c1 [Example 4.11, (R)-8-(2-(2-carboxyethoxy)-5-methylphenyl)-7-(4-chlorobenzyl)-6-((1-cyclopropylethyl)amino)-7H-purine-2-carboxylic acid]
IC50 (Table 4): 312 nM

COCOc1ccc(C(C)C)cc1-c1nc2nc(C(=O)O)nc(N[C@H](C)C3CCC3)c2n1Cc1ccc(C(F)(F)F)cc1 [Example 1.30, 6-{[(1R)-1-cyclobutylethyl]amino}-8-[2-(methoxymethoxy)-5-(1-methylethyl)phenyl]-7-[4-(trifluoromethyl)benzyl]-7H-purine-2-carboxylic acid]
IC50 (Table 1): 54.4 nM

C[C@@H](Nc1nc(C(=O)O)nc2nc(-c3ccc(C(=O)C4CC4)cc3)n(Cc3ccc(C(F)(F)F)cc3)c12)C1CCC1 [Example 1.116, 6-{[(1R)-1-cyclobutylethyl]amino}-8-[4-(cyclopropylcarbonyl)phenyl]-7-[4-(trifluoromethyl)benzyl] - 7H-purine-2-carboxylic acid]
IC50 (Table 1): 66.3 nM

CCc1ccc(OC)cc1-c1nc2nc(C(=O)O)nc(N[C@H](C)C3CCC3)c2n1Cc1ccc(C(F)(F)F)cc1 [Example 2.80, 6-{[(1R)-1-cyclobutylethyl]amino} -8-(2-ethyl-5-methoxyphenyl)-7-[4-(trifluoromethyl)benzyl]-7H-purine-2-carboxylic acid]
IC50 (Table 2): 11.1 nM

CCc1ccnc(-c2nc3nc(C(=O)O)nc(N[C@H](C)C4CCC4)c3n2Cc2ccc(C(F)(F)F)c(F)c2)c1 [Example 1.79, 6-{[(1R)-1-cyclobutylethyl]amino}-8-(4-ethylpyridin-2-yl)-7-[3-fluoro-4-(trifluoromethyl)benzyl]-7H-purine-2-carboxylic acid]
IC50 (Table 1): 10.2 nM

Cc1ccc(OC(F)(F)F)c(-c2nc3nc(C(=O)O)nc(N[C@H](C)C4CCC4)c3n2Cc2ccc(C(F)(F)F)cc2)c1 [Example 1.84, 6-{[(1R)-1-cyclobutylethyl]amino}-8-[5-methyl-2-(trifluoromethoxy)phenyl]-7-[4-(trifluoromethyl)benzyl]-7H-purine-2-carboxylic acid]
IC50 (Table 1): 9.68 nM

C[C@@H](Nc1nc(C(=O)O)nc2nc(-c3ccc4occc4c3)n(Cc3ccc(C(F)(F)F)cc3)c12)C1CCC1 [Example 1.117, 8-(1-benzofuran-5-yl)-6-{[(1R)-1-cyclobutylethyl]amino}-7-[4-(trifluoromethyl)benzyl]-7H-purine-2-carboxylic acid]
IC50 (Table 1): 16.7 nM

Cc1cccc(-c2nc3nc(C(=O)O)nc(N[C@H](C)C4CC4)c3n2Cc2ccc(F)c(C(F)(F)F)c2)c1 [Example 5.4, 6-{[(1R)-1-cyclopropylethyl]amino}-7-[4-fluoro-3-(trifluoromethyl)benzyl]-8-(3-methylphenyl)-7H-purine-2-carboxylic acid]
IC50 (Table 5): 4140 nM

C[C@@H](Nc1nc(C(=O)O)nc2nc(-c3cccc(Cl)c3)n(Cc3ccc(C(F)(F)F)cc3)c12)C1CCC1 [Example 2.40, 8-(3-chlorophenyl)-6-{[(1R)-1-cyclobutylethyl]amino}-7-[4-(trifluoromethyl)benzyl]-7H-purine-2-carboxylic acid]
IC50 (Table 2): 30 nM

CCOc1ccc(C)cc1-c1nc2nc(C(=O)O)nc(N[C@H](C)C3CC3)c2n1Cc1ccc(Cl)cc1 [Example 4.7, (R)-7-(4-chlorobenzyl)-6-((1-cyclopropylethyl)amino)-8-(2-ethoxy-5-methylphenyl)-7H-purine-2-carboxylic acid]
IC50 (Table 4): 123 nM

CC(C)c1cccc(-c2nc3nc(C(=O)O)nc(N[C@H](C)C4CC4)c3n2Cc2ccc(C(F)(F)F)cc2)c1 [Example 2.18, 6-{[(1R)-1-cyclopropylethyl]amino}-8-[3-(1-methylethyl)phenyl]-7-[4-(trifluoromethyl)benzyl]-7H-purine-2-carboxylic acid]
IC50 (Table 2): 123 nM

Reference: patent publication EP2951180B1, “2,6,7,8 SUBSTITUTED PURINES AS HDM2 INHIBITORS” (Merck Sharp & Dohme Corp., priority 2013, dated 2014)
